Source: patent US9303017B2, “2,5-disubstituted-pyridyl nicotinic ligands, and methods of use thereof” (Georgetown University, priority 2011, dated 2016)
Read-outs that look alike come from different tables or passages of the source.

What was measured:
[1] = test system: alcohol preferring rats (P rats); assay: Alcohol intake in alcohol preferring rats; format: in vivo, rat
Procedure: In Vivo Effects on Alcohol Intake in Rats. In our initial behavioral studies in an animal model, effects of compound (S)-15 (Scheme 1, YL-1-127) on alcohol self-administration in alcohol preferring rats (P rats) were assessed. Three doses of (S)-15 were tested: 0.33, 1 and 3 mg/kg (s.c.).
General Procedures for Effect on Alcohol Intake in Rats. Adult male rats obtained from a colony of selectively-bred alcohol preferring rats (P rats) maintained at Indiana University School of Medicine. Rats were housed in cages that were fitted with two 100 mL Richter tubes for the recording of water and alcohol intake. Animals were kept under a constant room temperature of 22±1° C. and 12:12 light-dark cycle (7:00 a.m.-7:00 p.m. dark). Animals were fed 5001 Rodent Chow (Lab Diet, Brentwood, Mo., USA). All procedures were approved by the IACUC at Duke University Medical Center.
After a week of handling and habituation, rats were given free access to water in a graduated Richter tube for 1 day. Next, they were given free access only to a solution of 10% (v/v) alcohol for 3 consecutive days. Thereafter, rats were given free access to water and a solution of alcohol throughout the study. Water and alcohol intake were indexed by graduated Richter drinking tubes.
An acute study was conducted to determine a dose-response for compound (S)-15 (YL-1-127). After the establishment of a stable baseline for alcohol and water intake rats were injected subcutaneously with 0.33, 1 and 3 mg/kg of YL-1-127 or the same volume of the vehicle ([…]). Alcohol and water intake were measured at, 2, 4, 6 and 24 hr after the drug administration. The preference for alcohol solution, [(alcohol volume)/(alcohol+water volume)×100], was calculated for the same time points as alcohol and water intake. All animals (n=18) received all treatments following a crossover design with random assignment. The interval between injections was at least 3 days.
Solution of 10% (v/v) alcohol was prepared twice weekly from a solution of […] mixed with tap water. Solutions of YL-1-127 was prepared weekly in 100 mM HCl solution and isotonic saline and was injected subcutaneously in a volume of 1 mL/kg.
The data were assessed by the analysis of variance with a between subjects factor of strain and a repeated measures factor of YL-1-127 dose. Significance was determined at p

rat α3β4 nAChRs = rat α3β4 nAChRs (Rattus norvegicus (Rat), UniProt P04757+P12392); assay: 86Rb+ efflux assay (activation and desensitization), α3β4; format: cell-based; settings: read-out: IC50(10′) α3β4 nAChRs
Procedure: (§1) In Vitro Effects on nAChR Function. […] Their agonist activities were assessed by measuring stimulated ^86Rb^+ efflux from stably transfected cells, either expressing human α4β2 nAChRs or rat α3β4 receptors.
(§2) Cell Lines and Cell Culture. The cell lines expressing defined rat nAChR subtypes were established previously by stably transfecting HEK 293 cells with rat nAChR subunit genes. The cell line expressing human α4β2 nAChRs, YXα4β2H1, was established recently. These cell lines were maintained in minimum essential medium (MEM) supplemented with 10% fetal bovine serum, 100 units/mL penicillin G, […] and selective antibiotics at 37° C. with 5% CO2 in a humidified incubator. Fetal bovine serum was provided by Gemini Bio-Products (Woodland, Calif.). Tissue culture medium and antibiotics were obtained from Invitrogen Corporation (Carlsbad, Calif.), unless otherwise stated.
(§3) ^86Rb^+ Efflux Assay. Functional properties of compounds at nAChRs expressed in the transfected cells were measured using ^86Rb^+ efflux assays as described previously. In brief, cells expressing human α4β2 or rat α3β4 nAChRs were plated into 24-well plates coated with poly-D-lysine. The plated cells were grown at 37° C. for 18 to 24 hour to reach 85-95% confluence. The cells were then incubated in growth medium (0.5 mL/well) containing ^86Rb^+ (2 μCi/mL) for 4 hour at 37° C. The loading mixture was then aspirated, and the cells were washed four times with 1 mL buffer (15 mM HEPES, 140 mM NaCl, 2 mM KCl, 1 mM MgSO4, 1.8 mM CaCl2, 11 mM Glucose, pH 7.4). One mL of buffer with or without compounds to be tested was then added to each well. After incubation for 2 min, the assay buffer was collected for measurements of ^86Rb^+ released from the cells. Cells were then lysed by adding 1 mL of 100 mM NaOH to each well, and the lysate was collected for determination of the amount of ^86Rb^+ that was in the cells at the end of the efflux assay. Radioactivity of assay samples and lysates was measured by liquid scintillation counting. Total loading (cpm) was calculated as the sum of the assay sample and the lysate of each well. The amount of ^86Rb^+ efflux was expressed as a percentage of ^86Rb^+ loaded. […] For obtaining EC50 and Emax values, stimulation curves were constructed in which 8 different concentrations of a ligand were included in the assay. […] EC50, Emax and IC50(10′) values were determined by nonlinear least-squares regression analyses (GraphPad, San Diego, Calif.).
(§4) The functional properties of the ligands were determined by ^86Rb^+ efflux assays in cells expressing α3β4 and α4β2 nAChR subtypes. The functional activity of each ligand was measured for its agonism, antagonism and desensitization ability. Agonist activity for each of the ligands was tested at eight different concentrations. […] The full concentration-effect curves generated potency (EC50) and efficacy (Emax) of each ligand. […] We tested each ligand for antagonist activity at eight concentrations. The potency (IC50(0′)) of each ligand as an antagonist was derived from the full concentration-effect curves.

human α4β2 nAChRs = human α4β2 nAChRs (Homo sapiens (Human), UniProt P17787+P43681); assay: 86Rb+ efflux assay (activation and desensitization), α4β2; format: cell-based; settings: for Emax: read-out: Emax α4β2 nAChRs; for IC50: desensitization
Procedure: as §1, §2, §3, §4

Question: Which results are given for CCCCC#Cc1cnc(C)c(OC[C@@H]2CCN2)c1 [(S)-15, (S)-3-(azetidin-2-ylmethoxy)-5-(hex-1-ynyl)-2-methylpyridine]?
Answer: alcohol intake ([1]; 1 mg/kg s.c., 24 h, p<0.05): reduced alcohol intake significantly; alcohol intake ([1]; 3 mg/kg s.c., 6 h, p<0.05): significant effects; alcohol intake ([1]; 3 mg/kg s.c., 24 h, p<0.0005): significant effects; alcohol intake ([1]; 0.33, 1 and 3 mg/kg s.c., compared with control vehicle): significantly reduced alcohol intake in a dose dependent manner; IC50 (rat α3β4 nAChRs): > 10000 nM; EC50 (human α4β2 nAChRs; agonist activity, ND = no significant stimulated efflux detected): 310 nM; Emax (human α4β2 nAChRs; agonist efficacy normalized to Emax of nicotine, ND = no significant stimulated efflux detected): < 20%; IC50 (human α4β2 nAChRs; 10 min pre-treatment, Table 3 (Example 4), read-out: IC50(10′) α4β2): 18 nM; IC50 (human α4β2 nAChRs; 10 min pre-incubation before 100 μM nicotine, Table 2, read-out: IC50(10′) α4β2 nAChRs): 180 nM; Emax (human α4β2 nAChRs): 15%
